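Each compound was tested at five concentrations against cells in 96-well plates for 48 hours. TGI: total growth inhibition.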
Key:
Experiment in all cases: inhibition of tumour cell growth, NCI panel, 48 h
786-0 renal = system: 786-0 renal
A498 renal = system: A498 renal
A549 NSCLC = system: A549 NSCLC
ACHN renal = system: ACHN renal
BT-549 breast = system: BT-549 breast
CAKI-1 renal = system: CAKI-1 renal
COLO 205 colon = system: COLO 205 colon
DU-145 prostate = system: DU-145 prostate
EKVX NSCLC = system: EKVX NSCLC
HCC-2998 colon = system: HCC-2998 colon
HCT-116 colon = system: HCT-116 colon
HCT-15 colon = system: HCT-15 colon
HL-60(TB) leukemia = system: HL-60(TB) leukemia
HOP-62 NSCLC = system: HOP-62 NSCLC
HOP-92 NSCLC = system: HOP-92 NSCLC
HS 578T breast = system: HS 578T breast
HT29 colon = system: HT29 colon
IGROV1 ovarian = system: IGROV1 ovarian
KM12 colon = system: KM12 colon
LOX IMVI melanoma = system: LOX IMVI melanoma
M14 melanoma = system: M14 melanoma
MALME-3M melanoma = system: MALME-3M melanoma
MCF7 breast = system: MCF7 breast
MDA-MB-231 breast = system: MDA-MB-231 breast
MDA-MB-435 = system: MDA-MB-435
MDA-N = system: MDA-N
MOLT-4 leukemia = system: MOLT-4 leukemia
NCI-H226 lung = system: NCI-H226 lung
NCI-H23 lung = system: NCI-H23 lung
NCI-H460 lung = system: NCI-H460 lung
NCI-H522 lung = system: NCI-H522 lung
NCI/ADR-RES ovarian = system: NCI/ADR-RES ovarian
OVCAR-3 ovarian = system: OVCAR-3 ovarian
OVCAR-4 ovarian = system: OVCAR-4 ovarian
OVCAR-5 ovarian = system: OVCAR-5 ovarian
OVCAR-8 ovarian = system: OVCAR-8 ovarian
PC-3 prostate = system: PC-3 prostate
RPMI-8226 leukemia = system: RPMI-8226 leukemia
RXF 393 renal = system: RXF 393 renal
SF-268 CNS = system: SF-268 CNS
SF-295 CNS = system: SF-295 CNS
SF-539 CNS = system: SF-539 CNS
SK-MEL-2 melanoma = system: SK-MEL-2 melanoma
SK-MEL-28 melanoma = system: SK-MEL-28 melanoma
SK-MEL-5 melanoma = system: SK-MEL-5 melanoma
SK-OV-3 ovarian = system: SK-OV-3 ovarian
SN12C renal = system: SN12C renal
SNB-19 CNS = system: SNB-19 CNS
SNB-75 CNS = system: SNB-75 CNS
SR leukemia = system: SR leukemia
SW-620 colon = system: SW-620 colon
T-47D breast = system: T-47D breast
TK-10 renal = system: TK-10 renal
U251 CNS = system: U251 CNS
UACC-257 melanoma = system: UACC-257 melanoma
UACC-62 melanoma = system: UACC-62 melanoma
UO-31 renal = system: UO-31 renal
CCRF-CEM leukemia = system: CCRF-CEM leukemia
K-562 leukemia = system: K-562 leukemia

Measured: TGI

O=C(c1ccccc1)c1ccc2c(c1)nc1n2C(c2c(Cl)cccc2Cl)SC1 (stereo not given)
> 100 µM: 786-0 renal | A498 renal | A549 NSCLC | ACHN renal | BT-549 breast | CAKI-1 renal | COLO 205 colon | DU-145 prostate | EKVX NSCLC | HCC-2998 colon | HCT-116 colon | HCT-15 colon | HL-60(TB) leukemia | HOP-62 NSCLC | HOP-92 NSCLC | HS 578T breast | HT29 colon | IGROV1 ovarian | KM12 colon | LOX IMVI melanoma | M14 melanoma | MALME-3M melanoma | MCF7 breast | MDA-MB-231 breast | MDA-MB-435 | MDA-N | MOLT-4 leukemia | NCI-H226 lung | NCI-H23 lung | NCI-H460 lung | NCI-H522 lung | NCI/ADR-RES ovarian | OVCAR-3 ovarian | OVCAR-4 ovarian | OVCAR-5 ovarian | OVCAR-8 ovarian | PC-3 prostate | RPMI-8226 leukemia | RXF 393 renal | SF-268 CNS | SF-295 CNS | SF-539 CNS | SK-MEL-2 melanoma | SK-MEL-28 melanoma | SK-MEL-5 melanoma | SK-OV-3 ovarian | SN12C renal | SNB-19 CNS | SNB-75 CNS | SR leukemia | SW-620 colon | T-47D breast | TK-10 renal | U251 CNS | UACC-257 melanoma | UACC-62 melanoma | UO-31 renal

O=C(O)CSCc1cccc2ccccc12
> 100 µM: 786-0 renal | A498 renal | A549 NSCLC | ACHN renal | BT-549 breast | CAKI-1 renal | CCRF-CEM leukemia | COLO 205 colon | DU-145 prostate | EKVX NSCLC | HCT-116 colon | HCT-15 colon | HL-60(TB) leukemia | HOP-62 NSCLC | HOP-92 NSCLC | HS 578T breast | HT29 colon | IGROV1 ovarian | K-562 leukemia | KM12 colon | LOX IMVI melanoma | M14 melanoma | MALME-3M melanoma | MCF7 breast | MDA-MB-231 breast | MDA-MB-435 | MDA-N | MOLT-4 leukemia | NCI-H226 lung | NCI-H23 lung | NCI-H460 lung | NCI-H522 lung | NCI/ADR-RES ovarian | OVCAR-3 ovarian | OVCAR-4 ovarian | OVCAR-5 ovarian | OVCAR-8 ovarian | PC-3 prostate | RPMI-8226 leukemia | RXF 393 renal | SF-268 CNS | SF-295 CNS | SF-539 CNS | SK-MEL-2 melanoma | SK-MEL-28 melanoma | SK-MEL-5 melanoma | SK-OV-3 ovarian | SN12C renal | SNB-19 CNS | SNB-75 CNS | SR leukemia | SW-620 colon | T-47D breast | TK-10 renal | U251 CNS | UACC-257 melanoma | UACC-62 melanoma | UO-31 renal
